Where two headings read alike, the source gives them in different places.
Columns and labels:
[1] = test system: Cryptococcus neoformans; assay: antimycotic activity, paper disk inhibition circle; format: cell-based; conditions: 48 h, 8 mm paper disk, 3 mg/ml, 37° C., 2 days, read-out: Growth inhibition Cryptococcus
Description: (§1) Referring to the antimycotic activity presented in Table 2, Cryptoccoccus neoformans and others were used as the test microbes, a paper disk (8 mm in diameter) was immersed in an aqueous solution of each test compound having a concentration of 3 mg/ml, air dried and placed on an agar medium, then incubation was conducted at 37° C. for 2 days, and the inhibition circle was measured. When the diameter of the inhibition circle was not larger than 8 mm, 8-10 mm, 10-20 mm, or larger than 20 mm, the activity was judged as -, ±, + or ++, respectively.

[2] = test system: Tetrahymena pyriformis W strain; assay: antiprotozoal activity, broth dilution method; format: cell-based; conditions: 28° C., 44-48 hours, pH 7.0, read-out: Growth inhibition MIC Tetrahymena
[3] = test system: human myelocytic leukemia cells HL-60; assay: growth inhibiting effect (IG effect) on HL-60; format: cell-based; conditions: HL-60, 120 h, 5 day culture, read-out: IG effect on HL-60 GD50
[4] = test system: Rhodotorula; assay: antimycotic activity, paper disk inhibition circle; format: cell-based; conditions: 48 h, 8 mm paper disk, 3 mg/ml, 37° C., 2 days, read-out: Growth inhibition Rhodotorula
Description: as §1

[5] = test system: Hamigera; assay: antimycotic activity, paper disk inhibition circle; format: cell-based; conditions: 48 h; 8 mm paper disk, 3 mg/ml, 37° C., 2 days; read-out: Growth inhibition Hamigera
Description: as §1

[6] = test system: Cochliobolus miyabeanus; assay: antifungal activity, serial dilution method; format: cell-based; conditions: Bipolaris oryzae
[7] = test system: Aspergillus niger; assay: antifungal activity, serial dilution method; format: cell-based; conditions: Aspergillus niger (black mold); 1% glucose-bouillon agar; read-out: MIC
[8] = test system: Sclerotinia sclerotiorum; assay: antifungal activity, serial dilution method; format: cell-based; conditions: Sclerotinia sclerotiorum (kidney bean stem rot); 1% glucose-bouillon agar
[9] = test system: Colletotrichum lagenarium; assay: antifungal activity, serial dilution method; format: cell-based; conditions: Colletotrichum orbiculare; Colletotrichum lagenarium (cucumber anthracnose); 1% glucose-bouillon agar; read-out: MIC
[10] = test system: Pyricularia oryzae; assay: microbe, parasite or virus in culture; format: cell-based
[11] = test system: Botrytis cinerea; assay: antifungal activity, serial dilution method; format: cell-based; conditions: Botrytis cinerea (gray mold); 1% glucose-bouillon agar
[12] = test system: Saccharomyces cerevisiae; assay: antifungal activity, serial dilution method; format: cell-based
[13] = test system: Rauscher virus-induced promyelocytic leukemia cells R453; assay: cell proliferation inhibiting activity against R453 cells; format: cell-based; conditions: Mus musculus, read-out: cell proliferation inhibiting activity (GD50 value)
[14] = test system: mouse spontaneous myelocytic leukemia cells MI (resistant clone); assay: cell proliferation inhibiting activity against MI cells; format: cell-based; conditions: read-out: cell proliferation inhibiting activity (GD50 value)
[15] = test system: Leptosphaeria salvinii; assay: antifungal activity, serial dilution method; format: cell-based; conditions: Nakataea oryzae; Leptosphaeria salvinii (rice stem rot); 1% glucose-bouillon agar; read-out: MIC
[16] = test system: CDF1 mice; assay: toxicity in CDF1 mice; format: in vivo, mouse; conditions: intraperitoneal 100 mg/kg, observation period one week
Description: (§2) The compounds of this invention are of relatively low toxicity. For example, the compound of Example 7 causes no deaths in CDF1 mice even at an intraperitoneal dose of 100 mg/kg (observation period: one week). The hemolytic activity of these compounds is also low in general. For example, in a hemolysis test (with human erythrocytes) by the method of Gottfried et al. [J. Lipid Research, 4, 57 (1963)], the 50% hemolytic concentration of the compound of Example 15 was about 10 μg/ml.

[17] = test system: Penicillium; assay: antifungal activity, serial dilution method; format: cell-based, Penicillium niger
[18] = test system: human erythrocytes; assay: hemolysis test by the method of Gottfried et al.; format: cell-based; conditions: 5% human albumin, relative to without albumin
Description: as §2

[19] = hemolysis test by the method of Gottfried et al.; format: cell-based, human; conditions: human, erythrocytes
Description: as §2

[20] = Saccharomyces cerevisiae (brewer's yeast), 1% glucose-bouillon agar, read-out: MIC
[21] = Penicillium niger (blue mold), 1% glucose-bouillon agar, read-out: MIC

Structure (SMILES) | zone of inhibition at 3000 µg/mL [1] | MIC [2] | IC50 [3] | zone of inhibition at 3000 µg/mL [4] | zone of inhibition at 3000 µg/mL [5] | MIC [6] | MIC [7] | MIC [8] | MIC [9] | MIC [10] | MIC [11] | MIC [12, 20] | MIC [15] | other results
CCCCCCCC/C=C\CCCCCCCCOCCOCCOCCOCCOP(=O)(O)OCCN [Example 10, 3,6,9,12-Tetraoxatriacont-21(Z)-enyl 2-aminoethyl phosphate] | 10 to 20 mm | > 4 µg/mL | 1 to 2 µg/mL | – | – | – | – | – | – | – | – | – | – | –
CCCCCCCCCCCCOCCOCCOCCOP(=O)(O)OCCN [Example 13, 3,6,9-Trioxaheneicosanyl 2-aminoethyl phosphate] | 10 to 20 mm | 4 µg/mL | – | 10 to 20 mm | 10 to 20 mm | 50 µg/mL | 25 µg/mL | 25 µg/mL | 25 µg/mL | 100 µg/mL | 50 µg/mL | 100 µg/mL | – | –
CCCCCCCC/C=C\CCCCCCCCOCCOCCOP(=O)([O-])OCC[N+](C)(C)C [Example 7, 3,6-Dioxatetracos-15(Z)-enyl 2-trimethylammonioethyl phosphate] | > 20 mm | 0.4 µg/mL | 1 to 2 µg/mL | 10 to 20 mm | > 20 mm | 25 µg/mL | 25 µg/mL | – | 25 µg/mL | 3.12 µg/mL | 6.25 µg/mL | 12.5 µg/mL | 25 µg/mL | IC50 [13]: 2 to 3 µg/mL; IC50 [14]: 8 to 11 µg/mL; deaths [16]: no deaths
CCCCCCCCCCCCOCCOCCOCCOCCOCCOP(=O)([O-])OCC[n+]1ccccc1 [Example 2, 3,6,9,12,15-Pentaoxaheptacosyl 2-pyridinioethyl phosphate] | 8 to 10 mm | > 4 µg/mL | – | 10 to 20 mm | < 8 mm | – | – | – | – | – | – | – | – | –
CCCCCCCCCCCCOCCOCCOP(=O)(O)OCCN [Example 12, 2-[2-(Dodecyloxy)ethoxy]ethyl 2-aminoethyl phosphate] | > 20 mm | 2 to 4 µg/mL | 5 µg/mL | 10 to 20 mm | 10 to 20 mm | 50 µg/mL | 25 µg/mL | 25 µg/mL | 25 µg/mL | 100 µg/mL | 50 µg/mL | 100 µg/mL | – | –
CCCCCCCCCCCCOCCOCCOCCOCCOP(=O)(O)OCCN [Example 14, 3,6,9,12-Tetraoxatetracosyanyl 2-aminoethyl phosphate] | 10 to 20 mm | 4 µg/mL | – | 10 to 20 mm | 10 to 20 mm | – | – | – | – | – | – | – | – | –
CCCCCCCCCCCCOCCOCCOCCOP(=O)([O-])OCC[n+]1ccccc1 [Example 16, 3,6,9-Trioxaheneicosanyl 2-pyridinioethyl phosphate] | > 20 mm | > 4 µg/mL | – | 10 to 20 mm | 10 to 20 mm | 25 µg/mL | 25 µg/mL | 50 µg/mL | 12.5 µg/mL | 25 µg/mL | 12.5 µg/mL | 50 µg/mL | 25 µg/mL | MIC [17, 21]: 12.5 µg/mL
CCCCCCCCCCCCOCCOCCOP(=O)([O-])OCC[N+](C)(C)C [Example 25, 3,6-Dioxaoctadecyl 2-trimethylammonioethyl phosphate] | > 20 mm | 0.4 µg/mL | – | – | – | 25 µg/mL | 25 µg/mL | 25 µg/mL | 1.56 µg/mL | 12.5 µg/mL | 6.25 µg/mL | – | 6.25 µg/mL | MIC ([17]; Penicillium): 12.5 µg/mL; MIC ([12]; Saccharomyces cerevisiae): 12.5 µg/mL
CCCCCCCCCCCCOCCOCCOP(=O)([O-])OCC[n+]1ccccc1 [Example 15, 2-[2-Dodecyloxy)ethoxy]ethyl 2-pyridinioethyl phosphate] | > 20 mm | > 4 µg/mL | – | 10 to 20 mm | 10 to 20 mm | 25 µg/mL | 25 µg/mL | 25 µg/mL | 12.5 µg/mL | 25 µg/mL | 12.5 µg/mL | 50 µg/mL | 25 µg/mL | 50% hemolytic concentration in the presence of human albumin [18]: several times as high; HC50 [19]: ~10 µg/mL; MIC [17, 21]: 12.5 µg/mL

Reference: patent US4551532A, “Ethylene glycol derivatives having anti-protozoan, anti-fungal and anti-tumor activity” (priority 1980, dated 1985)
